# System: recombinant NL-Rluc virus
# Experiment: Inhibition of HIV replication (NL-RLuc virus in MT-2 cells, luciferase readout)
# Format: cell-based
# Details: Human immunodeficiency virus 1, MT2, 120 h, 5 days of incubation, 10% FBS
row,SMILES,EC50
1,"Cc1nc2cc3nn2c(c1[C@H](OC(C)(C)C)C(=O)O)N1CCC(C)(CC1)OCCCC[C@H](C)Oc1cc(F)ccc1-c1cccc-3c1 [Example 83, (2S)-2-(tert-Butoxy)-2-[(22S)-18-fluoro-4,22,28-trimethyl-21,27-dioxa-1,5,7,8-tetraazahexacyclo[26.2.2.1^6,^9.1^10,^14.0^2,^7.0^15,^20]tetratriaconta-2,4, 6(34), 8, 10(33), 11, 13, 15(20),16,18-decaen-3-yl]acetic acid]",25 nM
2,"Cc1nc2cc3nn2c(c1[C@H](OC(C)(C)C)C(=O)O)N1CCC(C)(CC1)OCCCC[C@H](C)Oc1cccc(F)c1-c1cccc-3c1 [Example 84, (2S)-2-(tert-Butoxy)-2-[(22S)-16-fluoro-4,22,28-trimethyl-21,27-dioxa-1,5,7,8-tetraazahexacyclo[26.2.2.1^6,^9.1^10,^14.0^2,^7.0^15,^20]tetratriaconta-2,4,6(34),8,10(33),11,13,15(20),16,18-decaen-3-yl]acetic acid]",12 nM
3,"Cc1nc2cc3nn2c(c1[C@H](OC(C)(C)C)C(=O)O)N1CCC(C)(CC1)OCCCC[C@H](C)Oc1cccc(Cl)c1-c1cccc-3c1 [Example 85, (2S)-2-(tert-Butoxy)-2-[(22S)-16-chloro-4,22,28-trimethyl-21,27-dioxa-1,5,7,8-tetraazahexacyclo[26.2.2.1^6,^9.1^10,^14.0^2,^7.0^15,^20]tetratriaconta-2,4, 6(34), 8, 10(33), 11, 13, 15 (20),16,18-decaen-3-yl]acetic acid]",21 nM
4,"Cc1nc2cc3nn2c(c1[C@H](OC(C)(C)C)C(=O)O)N1CCC(C)(CC1)OCCCC[C@H](C)Oc1cc(Cl)ccc1-c1cccc-3c1 [Example 86, (2S)-2-(tert-Butoxy)-2-[(22S)-18-chloro-4,22,28-trimethyl-21,27-dioxa-1,5,7,8-tetraazahexacyclo[26.2.2.1^6,^9. 1^10,^14.0^2,^7.0^15,^20]tetratriaconta-2,4,6(34),8,10(33), 11, 13, 15 (20),16,18-decaen-3-yl]acetic acid]",52 nM
5,"Cc1nc2cc3nn2c(c1[C@H](OC(C)(C)C)C(=O)O)N1CCC(C)(CC1)OCCCC[C@H](C)Oc1cc(C#N)ccc1-c1cccc-3c1 [Example 87, (2S)-2-(tert-Butoxy)-2-[(22S)-18-cyano-4,22,28-trimethyl-21,27-dioxa-1,5,7,8-tetraazahexacyclo[26.2.2.1^6,^9.1^10,^14.0^2,^7.0^15,^20]tetratriaconta-2,4,6(34),8,10(33), 11, 13, 15 (20),16,18-decaen-3-yl]acetic acid]",9 nM
6,"Cc1cc2c(cc1Cl)-c1cccc(c1)-c1cc3nc(C)c([C@H](OC(C)(C)C)C(=O)O)c(n3n1)N1CCC(C)(CC1)OCCCC[C@H](C)O2 [Example 88, (2S)-2-(tert-Butoxy)-2-[(22S)-17-chloro-4,18,22,28-tetramethyl-21,27-dioxa-1,5,7,8-tetraazahexacyclo[26.2.2.1^6,^9.1^10,^14.0^2,^7.0^15,^20]tetratriaconta-2,4, 6(34), 8, 10(33), 11, 13, 15 (20),16,18-decaen-3-yl]acetic acid]",86 nM
7,"Cc1nc2cc3nn2c(c1[C@H](OC(C)(C)C)C(=O)O)N1CCC(C)(CC1)OCCCC[C@H](C)Oc1ccc(Cl)c(C)c1-c1cccc-3c1 [Example 89, (2S)-2-(tert-Butoxy)-2-[(22S)-17-chloro-4,16,22,28-tetramethyl-21,27-dioxa-1,5,7,8-tetraazahexacyclo[26.2.2.1^6,^9.1^10,^14.0^2,^7.0^15,^20]tetratriaconta-2,4, 6(34), 8, 10(33), 11, 13, 15(20),16,18-decaen-3-yl]acetic acid]",110 nM
8,"Cc1cc2c(cc1Cl)-c1cccc(c1)-c1cc3nc(C)c([C@H](OC(C)(C)C)C(=O)O)c(n3n1)N1CCC(C)(CC1)OCCCC[C@@H](C)O2 [Example 90, (2S)-2-(tert-Butoxy)-2-[(22R)-17-chloro-4,18,22,28-tetramethyl-21,27-dioxa-1,5,7,8-tetraazahexacyclo[26.2.2.1^6,^9.1^10,^14.0^2,^7.0^15,^20]tetratriaconta-2,4, 6(34), 8, 10(33), 11, 13, 15 (20),16,18-decaen-3-yl]acetic acid]",157 nM
